From paper PMC4476799, “Englerin A Agonizes the TRPC4/C5 Cation Channels to Inhibit Tumor Cell Line Proliferation” (PLoS ONE, 2015)
Like-named read-outs stand apart in the source and are kept apart here.

Tested on: cancer cell lines from the cancer cell line encyclopedia (CCLE)
Test: Cell line profiling (CLiP) proliferation experiment
Format: cell-based
Conditions: Homo sapiens; for IC50: read-out: Crossing Point; for EC50: read-out: Inflection Point
Description: Compound profiling experiment and data analysis was performed as previously described. Data was imported and plotted using the Tibco Spotfire DXP application. Lines were categorized as sensitive, intermediate and refractory as follows: Amax<-40 & Inflection Point <2 ~ Sensitive, Amax>-20 & Inflection Point >10 ~ Refractory, all else were called Intermediate. Cancer Cell line HG-U133 Plus 2 data was processed and normalized as described. […] Five sets of refractory cell lines were generated from the pool of refractory cell lines trying to match the lineage composition of the set of sensitive cell lines. The limma package was used as previously described to perform the statistical comparison.

[1] = RS4-11, RS4;11 (haematopoietic_and_lymphoid_tissue)
[2] = RS4-11, cell line RS4;11, haematopoietic_and_lymphoid_tissue, acute_lymphoblastic_B_cell_leukaemia
[3] = RT-112, cell line RT-112, urinary_tract, transitional_cell_carcinoma
[4] = RVH-421, cell line RVH-421, skin
[5] = SCaBER, cell line SCaBER, urinary_tract, transitional_cell_carcinoma
[6] = SET-2, cell line Set-2, haematopoietic_and_lymphoid_tissue, essential_thrombocythaemia
[7] = SF-126, cell line SF126, central_nervous_system, astrocytoma
[8] = SHP77, cell line SHP-77, lung, small_cell_carcinoma
[9] = SJRH30, cell line SJRH30, soft_tissue
[10] = SK-CO-1, cell line SK-CO-1, large_intestine, adenocarcinoma
[11] = SK-ES1, cell line SK-ES-1, bone
[12] = SK-MEL-24, cell line SK-MEL-24, skin
[13] = SK-MES-1, cell line SK-MES-1, lung, squamous_cell_carcinoma
[14] = SK-N-SH, cell line SK-N-SH, autonomic_ganglia
[15] = SKM-1, cell line SKM-1, haematopoietic_and_lymphoid_tissue, acute_myeloid_leukaemia
[16] = SNU1, cell line SNU-1, stomach, undifferentiated_adenocarcinoma
[17] = SNU-16, cell line SNU-16, stomach, undifferentiated_adenocarcinoma
[18] = SNU-475, cell line SNU-475, liver, hepatocellular_carcinoma
[19] = SNU-C1, SNU-C1 (large_intestine, adenocarcinoma)
[20] = ST486, ST486 (haematopoietic_and_lymphoid_tissue, Burkitt_lymphoma)
[21] = SU-DHL-4, SU-DHL-4 (haematopoietic_and_lymphoid_tissue, diffuse_large_B_cell_lymphoma)
[22] = SU-DHL-5, SU-DHL-5 (haematopoietic_and_lymphoid_tissue, diffuse_large_B_cell_lymphoma)
[23] = SU-DHL-8, SU-DHL-8 (haematopoietic_and_lymphoid_tissue, diffuse_large_B_cell_lymphoma)
[24] = SW48, SW48 (large_intestine, adenocarcinoma)
[25] = SW480, SW480 (large_intestine, adenocarcinoma)
[26] = SW1088, SW 1088 (central_nervous_system, NS)
[27] = SW1417, SW1417 (large_intestine, adenocarcinoma)
[28] = SW-620, SW620 (large_intestine, adenocarcinoma)
[29] = TE-11, TE-11 (oesophagus, squamous_cell_carcinoma)
[30] = TE-15, TE-15 (oesophagus, squamous_cell_carcinoma)
[31] = TOV112D, TOV-112D (ovary, endometrioid_carcinoma)
[32] = WSUDLCL2, WSU-DLCL2 cell line, haematopoietic_and_lymphoid_tissue, diffuse_large_B_cell_lymphoma
[33] = ZR-75-1, ZR-75-1 cell line, breast, ductal_carcinoma

CC(C)[C@@]12C[C@@H](O)[C@@](C)(O1)[C@@H]1CC[C@@H](C)[C@H]1[C@@H]2OC(=O)/C=C/c1ccccc1 [Englerin B]
17.4 µM: IC50 [9]
21.1 µM: IC50 [15] | IC50 (SKM-1, cell line SKM-1) | IC50 [33]
21.5 µM: EC50 [31]
18.5 µM: IC50 (SU-DHL10, SU-DHL-10 (haematopoietic_and_lymphoid_tissue, diffuse_large_B_cell_lymphoma))
> 30 µM: IC50 (RVH-421, RVH-421 cells) | IC50 [4] | IC50 (Rh18, RH-18 cells) | IC50 (Rh18, cell line RH-18) | IC50 (SCaBER, SCaBER (urinary_tract)) | IC50 [5] | IC50 (SHP77, SHP-77 cells) | IC50 [8] | IC50 (SK-BR-3, SK-BR-3 cells) | IC50 (SK-BR-3, cell line SK-BR-3, breast) | IC50 (SK-LMS-1, SK-LMS-1 cells) | IC50 (SK-LMS-1, cell line SK-LMS-1, soft_tissue) | IC50 (SK-LU-1, SK-LU-1 (lung)) | IC50 (SK-LU-1, cell line SK-LU-1, lung, adenocarcinoma) | IC50 (SK-MEL3, SK-MEL-3 cells) | IC50 (SK-MEL3, cell line SK-MEL-3, skin) | IC50 (SK-MEL-2, SK-MEL-2 (skin)) | IC50 (SK-MEL-2, SK-MEL-2, second row, PRIMARY_SITE (Empty)) | IC50 (SK-MEL-2, cell line SK-MEL-2, skin) | IC50 (SK-MEL-5, SK-MEL-5 (skin)) | IC50 (SK-MEL-5, cell line SK-MEL-5, skin) | IC50 (SK-MEL-24, SK-MEL-24 (skin)) | IC50 [12] | IC50 (SK-N-AS, SK-N-AS (autonomic_ganglia)) | IC50 (SK-N-AS, cell line SK-N-AS, autonomic_ganglia) | IC50 (SK-N-DZ, SK-N-DZ cells) | IC50 (SK-N-DZ, cell line SK-N-DZ, autonomic_ganglia) | IC50 (SK-N-FI, SK-N-FI (autonomic_ganglia)) | IC50 (SK-N-FI, cell line SK-N-FI, autonomic_ganglia) | IC50 (SK-N-SH, cell line SK-N-SH (autonomic_ganglia, NS)) | IC50 [14] | IC50 (SK-OV-3, SK-OV-3 (ovary)) | IC50 (SK-OV-3, cell line SK-OV-3, ovary, adenocarcinoma) | IC50 (SK-UT-1, SK-UT-1 (soft_tissue)) | IC50 (SK-UT-1, cell line SK-UT-1, soft_tissue) | IC50 (SKNBE2, cell line SK-N-BE(2), autonomic_ganglia) | IC50 (SKNBE2, cell line SK-N-BE(2)) | IC50 (SNB-19, SNB-19 cells) | IC50 (SNB-19, cell line SNB-19, central_nervous_system, astrocytoma_Grade_IV) | IC50 (SNU1, SNU-1 (stomach)) | IC50 [16] | IC50 (SNU-182, SNU-182 (liver)) | IC50 (SNU-182, cell line SNU-182, liver, hepatocellular_carcinoma) | IC50 (SNU-475, cell line SNU-475 (liver, hepatocellular_carcinoma)) | IC50 [18] | IC50 [19] | IC50 (SNU-C1, SNU-C1 cells) | IC50 (SW480, SW480 (large_intestine)) | IC50 [25] | IC50 (SW837, SW837 (large_intestine)) | IC50 (SW837, SW837 (large_intestine, adenocarcinoma)) | IC50 (SW948, SW948 (large_intestine)) | IC50 (SW948, SW948 (large_intestine, adenocarcinoma)) | IC50 (SW1088, SW 1088 (central_nervous_system)) | IC50 [26] | IC50 (SW1353, SW 1353 (bone)) | IC50 (SW1353, SW 1353 (bone, NS)) | IC50 (SW1573, SW 1573 (lung)) | IC50 (SW1573, SW 1573 (lung, squamous_cell_carcinoma)) | IC50 (SW1783, SW 1783 (central_nervous_system, astrocytoma_Grade_III)) | IC50 (SW1783, cell line SW 1783 (central_nervous_system, astrocytoma_Grade_III)) | IC50 (SW1990, SW 1990 (pancreas)) | IC50 (SW1990, SW 1990 (pancreas, ductal_carcinoma)) | IC50 (T47D, T-47D (breast)) | IC50 (T47D, T-47D (breast, ductal_carcinoma)) | IC50 (T98G, T98G (central_nervous_system)) | IC50 (T98G, T98G (central_nervous_system, astrocytoma_Grade_IV)) | IC50 (TE-10, TE-10 (oesophagus)) | IC50 (TE-10, TE-10 (oesophagus, squamous_cell_carcinoma)) | IC50 (U-118-MG, U-118 MG (central_nervous_system, astrocytoma)) | IC50 (U-118-MG, cell line U-118 MG) | IC50 (U-251, U-251 MG (central_nervous_system)) | IC50 (U-251, U-251 MG (central_nervous_system, astrocytoma)) | IC50 (UACC-62, UACC-62 (skin)) | IC50 (UACC-62, UACC-62 cell line, skin, NS) | IC50 (WM 266-4, WM-266-4 (skin)) | IC50 (WM 266-4, WM-266-4 cell line, skin, NS) | IC50 (WM793, WM-793 (skin)) | IC50 (WM793, WM-793 cell line, skin, NS) | IC50 (WM-115, WM-115 (skin)) | IC50 (WM-115, WM-115 cell line, skin, NS) | IC50 (YAPC, YAPC (pancreas)) | IC50 (YAPC, YAPC cell line, pancreas, NS) | IC50 (YKG-1, YKG1 (central_nervous_system)) | IC50 (YKG-1, YKG1 cell line, central_nervous_system, astrocytoma_Grade_IV) | IC50 (ZR-75-30, ZR-75-30 (breast))
29 µM: IC50 [24] | EC50 [24]
14.5 µM: EC50 (SHP77, SHP-77 cells) | EC50 [8]
13.7 µM: IC50 (TE-11, TE-11 (oesophagus)) | IC50 [29]
19.1 µM: IC50 (SNU-449, SNU-449 (liver)) | IC50 (SNU-449, cell line SNU-449, liver, hepatocellular_carcinoma)
29.1 µM: IC50 (SJSA-1, cell line SJSA-1, bone)
18.9 µM: IC50 (VM-CUB-1, VM-CUB1 cell line, urinary_tract, transitional_cell_carcinoma)
14.6 µM: IC50 [23] | IC50 (U-937, U-937 (haematopoietic_and_lymphoid_tissue, malignant_histiocytosis))
18.4 µM: EC50 (Raji, Raji cells) | EC50 (Raji, cell line Raji) | IC50 (Rec1, REC-1 cells) | EC50 (Rec1, REC-1 cells) | IC50 (Rec1, cell line REC-1) | EC50 (Rec1, cell line REC-1)
15.9 µM: IC50 [6]
15.2 µM: EC50 (SW1353, SW 1353 (bone, NS)) | IC50 (Z-138, Z-138 (haematopoietic_and_lymphoid_tissue)) | IC50 (Z-138, Z-138 cell line, haematopoietic_and_lymphoid_tissue, mantle_cell_lymphoma)
25 µM: EC50 (SK-MES-1, SK-MES-1 cells) | EC50 [13]
17.6 µM: IC50 (Raji, cell line Raji)
11.1 µM: EC50 [12]
12.3 µM: EC50 (SF-126, SF126 cells) | EC50 [7]
26.1 µM: IC50 [27] | EC50 [27]
24.5 µM: EC50 [15]
28 µM: IC50 (SK-MEL-30, cell line SK-MEL-30, skin)
13.2 µM: EC50 [23]
12.1 µM: EC50 (SNU1, SNU-1 (stomach)) | EC50 [16]
14.7 µM: IC50 [22] | EC50 [22]
16.1 µM: EC50 (SJSA-1, SJSA-1 cells) | EC50 (SJSA-1, cell line SJSA-1, bone)
22.9 µM: EC50 (SET-2, Set-2 (haematopoietic_and_lymphoid_tissue)) | EC50 [6]
26.5 µM: IC50 [13]
13.5 µM: EC50 (SNU-16, SNU-16 cells) | EC50 [17] | IC50 [20] | EC50 [20] | EC50 [29]
14.8 µM: EC50 [19] | EC50 (SNU-C1, SNU-C1 cells)
14.2 µM: IC50 [32] | EC50 [32]
11.6 µM: EC50 (RVH-421, RVH-421 cells) | EC50 [4] | EC50 (Rh41, RH-41 (soft_tissue)) | IC50 (Rh41, cell line RH-41) | EC50 (Rh41, cell line RH-41) | EC50 (SK-CO-1, SK-CO-1 (large_intestine)) | EC50 [10]
20.4 µM: EC50 [11]
7.74 µM: EC50 [14]
2.41 µM: EC50 [26]
21.8 µM: IC50 (TOV21G, TOV-21G (ovary, clear_cell_carcinoma))
19.8 µM: IC50 (SF-295, cell line SF-295, central_nervous_system, astrocytoma_Grade_IV) | IC50 (UACC-257, UACC-257 (skin, NS))
21.6 µM: IC50 [11]
25.6 µM: IC50 (UMUC3, UM-UC-3 cell line, urinary_tract, transitional_cell_carcinoma)
11.9 µM: EC50 [28]
23.2 µM: IC50 [7]
17.8 µM: IC50 [10]
15.5 µM: EC50 [9]
17.9 µM: IC50 [1] | EC50 [1] | IC50 [2] | EC50 [2] | IC50 (THP-1, THP-1 (haematopoietic_and_lymphoid_tissue, acute_myeloid_leukaemia))
12.8 µM: IC50 [28]
14.1 µM: IC50 [17]
8.92 µM: EC50 [25]
20.5 µM: IC50 [21] | EC50 [21]
26 µM: IC50 [30] | EC50 [30]
12.9 µM: EC50 (SCaBER, SCaBER (urinary_tract)) | EC50 [5] | EC50 [18] | EC50 [33]
19.5 µM: IC50 [31]
16.7 µM: IC50 (RT-112, RT-112 cells) | EC50 (RT-112, RT-112 cells) | IC50 [3] | EC50 [3]
19.6 µM: IC50 (SK-MEL-1, cell line SK-MEL-1, skin)
